Data taken from patent publication US4778792A, “Use of 7-acyl benzoxazinones and their derivatives in treating atheromatous disorders” (Laboratories Negma, priority 1985, dated 1988).
Where a name gives a salt, the structure may show the parent alone. Read-outs that look alike come from different tables or passages of the source.

Assay: Normolipemic activity, lipid balance in normal or hypercholesterolemic mice
Assay type: in vivo
Details: per os, 50 mg/kg daily for 15 days, with respect to a control group; for change in vivo at 50 mg/kg: Mus musculus, po, 360 h
Method: Activity of selected molecules by the Triton test in mice rendered hypercholesterolemic and normal mice: study of the lipid parameters, of the lipoprotein and apoprotein composition.
Preliminary study on the weight of the liver and histological examination of the hepatic tissue.
3.2 The normolipemic activity has also been established in OF normal mice or rendered hypercholesterolemic. The products tested were administered per os daily for 15 days at the dose of 50 mg/kg.
All the compounds were administered orally at the rate of 50 mg/kg.

[1] = read-out: HDLC (Cholesterol fraction contained in the HDLs) %
[2] = read-out: HDLC/TC (ratio between the cholesterol contained in the HDLs and the total cholesterol) %
[3] = read-out: CT (Total cholesterol) %

Structure (SMILES)	change in vivo at 50 mg/kg [1] [%]	change in vivo at 50 mg/kg [2] [%]	change in vivo at 50 mg/kg (read-out: Phospho Lipids) [%]	change in vivo at 50 mg/kg (read-out: TG (Triglycerids) %) [%]	Liver weight / Body weight	change in vivo at 50 mg/kg [3] [%]
CC1Oc2cc(C(=O)C=Cc3ccc(Cl)cc3)ccc2N(C)C1=O (centres unmarked) [MZ 134, 7(4-Chlorocinnamoyl)2,4 dimethyl benzoxazinone]	5	10	11	-9	+5%	
CN1C(=O)C(C)(C)Oc2cc(C(=O)CCN3CCOCC3)ccc21 [NM 7, 7[3-morpholinopropionyl[2'2'4 trimethylbenzoxazinone, hydrochloride]	5	14	5	5	-10%	2
CCCC(=O)c1ccc2c(c1)OC(C)(C)C(=O)N2CCC(=O)O [NM 11, 7-Butyryl 4-β carboxyethyl 2,2-dimethyl benzoxazinone]	7	43	16	-8	0%	-37
CN1C(=O)C(C)(C)Oc2cc(C(=O)CCN3CCN(c4cccc(C(F)(F)F)c4)CC3)ccc21 [NM 8, 3(4-Metatrifluoromethylphenylpiperazino)7-propionyl 2,2,4 trimethyl benzoxazinone, hydrochloride]	10	11	8	23	-15%	8
CCCC(=O)c1ccc2c(c1)OC(C)(C)C(=O)N2C [MZ 86, 7-Butyryl 2,2,4-trimethyl benzoxazinone]	18	44	0	-12	+2%	-38
CN1C(=O)C(C)(C)Oc2cc(C(=O)c3ccccc3)ccc21 [MZ 119, 7-Benzoyl 2,2,4 trimethyl benzoxazinone]	-6	21	15	21	+12%	-30
CN1C(=O)C(C)(C)Oc2cc(C(=O)CCCN3CCN(c4ccc(F)cc4)CC3)ccc21 [MZ 153, 7[4(4p-fluorophenylpiperazino)butyryl]2,2,4-trimethyl benzoxazinone]	25	45	19	18	+4%	-10
CC(C)OC(=O)C(C)(C)Oc1ccc(C(=O)c2ccc(Cl)cc2)cc1 [Fenofibrate, fenofibrate, reference compound]	-11	30	18	24	+55%	-30
CCCC(=O)c1ccc2c(c1)OC(C)(C)C(=O)N2 [MZ 95, 7-Butyryl 2,2-dimethyl benzoxazinone]	0	25	5	-5	+6%	-21
CN1C(=O)C(C)(C)Oc2cc(C(=O)c3ccc(Cl)cc3)ccc21 [MZ 125, 7-(4-Chlorobenzoyl)2,2,4-trimethyl benzoxazinone]	1	18	15	19	+17%	-25
CC1Oc2cc(C(=O)c3ccccc3)ccc2NC1=O (centres unmarked) [MZ 115, 7-Benzoyl 2-methyl benzoxazinone]	-5	17	-9	18	+9%	-32
